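Compound exposure: 48 hours, 5 concentrations, 96-well plates. At the GI50, growth is halved.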 Activity calls are given as the source filed them. No stated cut-off is given here; in the data, active = GI50 up to about 1.1 µM and inactive = higher.

These results are taken from ChEMBL document CHEMBL1201862, “PubChem BioAssay data set” (2004).

Some test systems named below: A549; CCRF-CEM; COLO 205; HCT-116; HL-60; HT-29; K562; LOX IMVI; MOLT-4; NCI-H460; OVCAR-5; OVCAR-8; SF-268; SF-295; SK-MEL-28; SK-MEL-2; SK-MEL-5; SN12C; SW-620; UO-31.
Common to all, as to test: inhibition of tumour cell growth, NCI panel, 48 h

For `C=C/C(C)=C/[C@H](C)C(=O)C[C@H](O)CC1CC(=O)NC(=O)C1`, the GI50 is 51.3 µM (inactive) in the assay on A549; 25 µM (inactive) in the assay on CCRF-CEM; 34.1 µM (inactive) with COLO 205; 40.3 µM (inactive) in the assay on HCT-116; 20.3 µM (inactive) in the assay on HL-60; 34 µM (inactive) in the assay on HT-29. Besides, the GI50 was 43.4 µM (inactive) in the assay with K562; 43.1 µM (inactive) in the assay on LOX IMVI; 19.8 µM (inactive) in the assay on MOLT-4; 37.7 µM (inactive) with NCI-H460; 58.9 µM (inactive) in the assay with OVCAR-5; 24.2 µM (inactive) in the assay on OVCAR-8. Also, the GI50 in the assay on SF-268 was 36 µM (inactive); in the assay with SF-295, 36.1 µM (inactive); with SK-MEL-28, 28.6 µM (inactive); in the assay with SK-MEL-2, 28.9 µM (inactive); in the assay on SK-MEL-5 it was 34.5 µM (inactive); with SN12C, 25.5 µM (inactive). Besides, the GI50 in the assay with SW-620 was 31.5 µM (inactive); with UO-31 it was 48.9 µM (inactive).

In the case of `COP(=O)(OC)C(Cc1cn(C(C)=O)c2ccccc12)C(=O)O` (stereo unspecified), the GI50 with A549, in the assay with CCRF-CEM, in the assay on COLO 205, in the assay with HCT-116, in the assay with HL-60 and in the assay on HT-29 was > 100 µM (inactive) throughout. Besides, the GI50 in the assay on K562, in the assay with LOX IMVI, with MOLT-4, in the assay on NCI-H460, in the assay with OVCAR-5 and in the assay with OVCAR-8 was > 100 µM (inactive) in each case. Moreover, the GI50 in the assay with SF-295, in the assay with SK-MEL-28, in the assay on SK-MEL-2, with SK-MEL-5, with SN12C and in the assay with SW-620 was > 100 µM (inactive) in each case. The GI50 in the assay with UO-31 is > 100 µM (inactive).

`N/C(=N\O)N/N=C\c1cc([N+](=O)[O-])cc([N+](=O)[O-])c1O`: the GI50 in the assay with A549 is 8.51 µM (inactive); in the assay with CCRF-CEM, 6.61 µM (inactive); in the assay on COLO 205, 15.3 µM (inactive); in the assay on HCT-116 it was 4.92 µM (inactive); with HL-60, 3.36 µM (inactive); in the assay on HT-29, 11.4 µM (inactive). The GI50 in the assay with K562 was 5.26 µM (inactive); with LOX IMVI, 2.99 µM (inactive); in the assay on MOLT-4 it was 10.2 µM (inactive); in the assay with NCI-H460, 2.76 µM (inactive); in the assay with OVCAR-5, > 30.5 µM (inactive); with OVCAR-8, 6.11 µM (inactive). In addition, the GI50 with SF-268 is 62.1 µM (inactive); in the assay with SF-295, 4.16 µM (inactive); in the assay on SK-MEL-28, > 100 µM (inactive); with SK-MEL-2, > 100 µM (inactive); with SK-MEL-5 it was 9.42 µM (inactive); in the assay with SN12C it was 24.2 µM (inactive). For the same compound, the GI50 in the assay on SW-620 is 13.9 µM (inactive); with UO-31 it was 4.67 µM (inactive).

In the case of `COc1cc2c(cc1OC)-c1c(cnn1C1OC(COC(C)=O)C(OC(C)=O)C(OC(C)=O)C1OC(C)=O)CC2` (stereo unspecified), the GI50 with A549 was > 100 µM (inactive); with CCRF-CEM it was 28.6 µM (inactive); with COLO 205 it was > 100 µM (inactive); with HCT-116, > 100 µM (inactive); in the assay with HL-60 it was 11 µM (inactive); in the assay on HT-29, > 100 µM (inactive). Moreover, the GI50 with K562 is 33 µM (inactive); in the assay with LOX IMVI, > 100 µM (inactive); in the assay with MOLT-4 it was > 81.5 µM (inactive); in the assay with NCI-H460, > 100 µM (inactive); with OVCAR-5 it was > 100 µM (inactive); in the assay with OVCAR-8, > 100 µM (inactive). Also, the GI50 was > 100 µM (inactive) in the assay on SF-268; > 100 µM (inactive) with SF-295; > 100 µM (inactive) with SK-MEL-28; > 100 µM (inactive) in the assay with SK-MEL-2; > 83.4 µM (inactive) with SK-MEL-5; > 60.7 µM (inactive) in the assay on SW-620. The GI50 in the assay on UO-31 is 55.7 µM (inactive).

Consider `CCP(=O)(CC)C(Cl)Cl`, for which the GI50 in the assay on A549, with CCRF-CEM, in the assay on COLO 205, with HCT-116, with HL-60 and in the assay on HT-29 was > 100 µM (inactive) in each case. Besides, the GI50 in the assay on K562, in the assay on LOX IMVI, with MOLT-4, in the assay with NCI-H460, with OVCAR-5 and in the assay on OVCAR-8 was > 100 µM (inactive) in each case. For the same compound, the GI50 in the assay on SF-295, with SK-MEL-28, in the assay on SK-MEL-2, with SK-MEL-5, in the assay on SN12C and in the assay on SW-620 was > 100 µM (inactive) each time. In addition, the GI50 in the assay with UO-31 is > 100 µM (inactive).

Take `O=C1C2Cc3ccccc3CN2C(=O)N1CN1CCCCC1` (stereo unspecified): the GI50 in the assay with A549 is > 100 µM (inactive); in the assay with CCRF-CEM, 43.4 µM (inactive); with COLO 205, > 100 µM (inactive); in the assay with HL-60, 26.6 µM (inactive); in the assay on K562, > 100 µM (inactive); in the assay with LOX IMVI, > 100 µM (inactive). The GI50 in the assay with MOLT-4, in the assay on NCI-H460, in the assay with OVCAR-5, in the assay with OVCAR-8, in the assay on SF-268 and in the assay with SF-295 was > 100 µM (inactive) in each case. Moreover, the GI50 was > 100 µM (inactive) in the assay with SK-MEL-28; > 100 µM (inactive) in the assay on SK-MEL-2; > 100 µM (inactive) in the assay with SK-MEL-5; > 100 µM (inactive) in the assay with SN12C; 55.6 µM (inactive) with SW-620; > 100 µM (inactive) in the assay with UO-31.

On to `NC(=O)C1(c2ccccc2)Nc2ccccc2S1` (stereo unspecified), for which the GI50 in the assay on A549, in the assay on CCRF-CEM, with COLO 205, in the assay on HCT-116, in the assay on HL-60 and in the assay on HT-29 was > 100 µM (inactive) each time. The GI50 with K562, in the assay with LOX IMVI, in the assay with MOLT-4, in the assay with NCI-H460, in the assay on OVCAR-5 and with OVCAR-8 was > 100 µM (inactive) throughout. The GI50 with SF-268, in the assay on SK-MEL-28, with SK-MEL-2, in the assay on SK-MEL-5, in the assay with SN12C and in the assay on SW-620 was > 100 µM (inactive) throughout. For the same compound, in the assay with UO-31, the GI50 is > 100 µM (inactive).

With `COC1C=CC(O)C(CO)O1` (stereo unspecified), the GI50 in the assay with A549, with CCRF-CEM, in the assay with HCT-116, in the assay with HL-60, in the assay with HT-29 and in the assay on K562 was > 100 µM (inactive) in each case. In addition, the GI50 in the assay with LOX IMVI, in the assay on MOLT-4, with NCI-H460, in the assay on OVCAR-5, in the assay on OVCAR-8 and with SF-295 was > 100 µM (inactive) in each case. Further, the GI50 in the assay with SK-MEL-28, in the assay with SK-MEL-2, in the assay with SK-MEL-5, in the assay with SN12C, with SW-620 and in the assay on UO-31 was > 100 µM (inactive) throughout.

Regarding `CN(CCCCCl)P(=O)(OCC1=CC(=O)c2ccccc2C1=O)OC[C@H]1O[C@@H](n2cc(F)c(=O)[nH]c2=O)C[C@@H]1O` (stereo partly specified), the GI50 with A549 was < 0.01 µM (active); in the assay on CCRF-CEM, < 0.01 µM (active); in the assay with HCT-116, 0.0693 µM (active); with HL-60, 0.69 µM (active); in the assay with K562, 1.5 µM (inactive); in the assay on LOX IMVI it was < 0.01 µM (active). Moreover, the GI50 in the assay with NCI-H460 was < 0.01 µM (active); with OVCAR-5, 4.38 µM (inactive); in the assay with OVCAR-8, 0.0378 µM (active); in the assay with SF-268, < 0.01 µM (active); in the assay on SF-295 it was < 0.0175 µM (active); with SK-MEL-28 it was 4.11 µM (inactive). Besides, the GI50 is 8.09 µM (inactive) in the assay on SK-MEL-2; 0.0334 µM (active) with SK-MEL-5; < 0.0323 µM (active) in the assay on SN12C; 3.51 µM (inactive) in the assay with SW-620; < 0.01 µM (active) in the assay with UO-31.

As to `CC(=O)O[C@H]1[C@@H]2OC(=O)[C@@](O)(CC3CCCO3)[C@@H]2CC(=O)[C@](C)(O)CC/C=C(\C)CCC[C@@H]1C` (stereo partly specified), the GI50 with A549 was 40.6 µM (inactive); in the assay with CCRF-CEM, 22.7 µM (inactive); in the assay with COLO 205, 18.6 µM (inactive); in the assay with HL-60 it was 21.5 µM (inactive); with K562, 24.4 µM (inactive); in the assay with LOX IMVI it was 20.8 µM (inactive). Besides, the GI50 is > 100 µM (inactive) with NCI-H460; > 100 µM (inactive) in the assay on OVCAR-5; 35.6 µM (inactive) in the assay on OVCAR-8; > 100 µM (inactive) with SF-268; 77.3 µM (inactive) in the assay on SF-295; 20.3 µM (inactive) in the assay with SK-MEL-28. Also, the GI50 in the assay with SK-MEL-2 was 57.5 µM (inactive); in the assay with SK-MEL-5 it was 43.6 µM (inactive); with SN12C, 30.4 µM (inactive); with SW-620 it was 22.5 µM (inactive); with UO-31 it was 61.8 µM (inactive).
